Laboratory results from patent publication US20080206149A1, “METHOD, DYE AND MEDICAMENT FOR STAINING THE INTERNAL LIMITING MEMBRANE, EPIRETINAL MEMBRANE, THE VITREOUS AND/OR THE CAPSULE OF AN EYE” (LUDWIG-MAXIMILIANS-UNIVERSITAT MUNCHEN, priority 2005, published 2008).

Tests used:
vitreous = assay: Staining of the vitreous during pars plana vitrectomy in porcine eyes; format: in vivo; details: graded by two examiners
Protocol: All dyes were dissolved and diluted using balanced salt solution (BSS plus; Alcon Laboratories Inc., Fort Worth, Tex).
Experiments were performed in animals (porcine eyes) and humans after approval of the local ethics committee had been obtained. All experiments were performed in compliance with the Declaration of Helsinki.
Ophthalmic surgery consisted of a standard pars plana vitrectomy. First, the transparent vitreous was removed as completely as possible. Then fluid air exchange was performed in order to avoid an uncontrolled distribution of the dye in the vitreous cavity. The dye was then injected into the air filled globe. After a period of one minute, the dye was washed out by irrigation with BSS. This was followed by an injection of the dye in concentrations from 0.2% to 2%. The staining of the vitreous was graded by two examiners who also performed the surgical procedures.

primary RPE cells [1] = assay: Life-dead assay (propidium iodide / Hoechst 33342), primary RPE cells; format: cell-based
Protocol: Invest Ophthalmol Vis Sci 2002; 43: 3575-82.
(§1) Confluent RPE and ARPE-19 cells were prepared and treated as described above. Cell viability was quantified based on a two-color fluorescence assay in which the nuclei of nonviable cells appear red because of staining by the membrane-impermeable dye propidium iodide (Sigma), whereas the nuclei of all cells were stained with the membrane-permeable dye Hoechst 33342 (Intergen, Purchase, N.Y.). […] For evaluation of cell viability, cells were washed in PBS and incubated with 2.0 μg/mL propidium iodide and 1.0 μg/mL Hoechst 33342 for 20 minutes at 37° C. Subsequently, cells were analyzed with an epifluorescence microscope (Axioskop; Zeiss, Göttingen, Germany). The labeled nuclei were then counted in fluorescence photomicrographs, and dead cells were expressed as a percentage of total nuclei in the field. The data are based on counts from three experiments performed in duplicate wells, with three to five documented representative fields per well.

ARPE-19 cells [2] = assay: Life-dead assay (propidium iodide / Hoechst 33342), ARPE-19 cells; format: cell-based
Protocol: as §1

lens capsule [3] = assay: Staining of the lens capsule in enucleated porcine eyes; details: injected into air-filled anterior chamber, removed after one minute; clear porcine lens as background
Protocol: Additionally, the staining characteristics of the lens capsule in enucleated porcine eyes with a postmortem time of nine hours were evaluated. The dyes were injected into the air-filled anterior chamber and removed by irrigation after one minute. Then, the cornea was removed and a capsulorhexis was performed with a bent needle. All procedures were taped on video.

[4] = Light absorbing properties (UV/VIS/NIR spectrometer); format: physicochemical; details: measured up to a content of 0.05% dye
Protocol: Light absorption was measured in 0.05% solutions, with BSS plus as a solvent medium. Light absorption was measured instantly after preparation of a stock solution of the dye using a UV/VIS/NIR Spectrometer (Lambda 900, Perkin Elmer) between 200 and 1000 nm.

primary RPE cells [5] = assay: MTT assay, primary RPE cells; details: 0.2% and 0.02% dye, 10 minutes exposure, compared to BSS plus control
Description: In brief, whole eyes were thoroughly cleansed in 0.9% NaCl solution, immersed in 5% polyvinyl pyrrolidone iodine, and rinsed again in the sodiumchloride solution. The anterior segment from each donor eye was removed and the posterior poles were examined with the aid of a binocular stereomicroscope to confirm the absence of gross retinal disease. Next, the neural retinas were carefully peeled away from the RPE-choroid-sclera using fine forceps. The eye cup was rinsed with Ca^2+ and Mg^2+-free Hank's balanced salt solution, and filled with 0.25% trypsin (GIBCO, Karlsruhe, Germany) for 30 min at 37° C. The trypsin was carefully aspirated and replaced with Dulbecco's modified eagles medium (DMEM, Biochrom, Berlin, Germany) supplemented with 20% fetal calf serum (FCS, Biochrom). Using a pipette, the media was gently agitated, releasing the RPE into the media by avoiding damage to Bruch's membrane. The RPE cell solution was transferred to a 50 ml flask (Falcon, Wiesbaden, Germany) containing 20 ml of DMEM (Biochrom) supplemented with 20% FCS (Biochrom) and maintained at 37° C. and 5% carbon dioxide. […] After having grown to confluency (100%), primary RPE cells were subcultured and maintained in DMEM (Biochrom) supplemented with 10% FCS (Biochrom) at 37° C. and 5% carbon dioxide. Primary RPE of passage 3-6 and ARPE-19 cells were used for experiments.
For exposure of dyes RPE and ARPE-19 cells were kept for 24 hours under serum free conditions. After washing cells three times with PBS, cells were incubated for 10 minutes with 300 μl of BSS plus containing 0.2% or 0.02% of dye, respectively. […] The dye was then removed by carefully rinsing cells with BSS plus three times. After 24 hours incubation with serum containing media the cell proliferation assay was performed. […]
The tetrazolium dye-reduction assay (MTT; 3-[4,5-dimethylthiazol-2-yl]-2,5-diphenyl tetrazolium bromide;) was used to determine cell survival rate. […] Absorption was measured by a scanning multiwell spectrophotometer at 550 nm (Molecular Probes, Garching, Germany). […]

ARPE-19 cells [6] = assay: MTT assay, ARPE-19 cells; details: 0.2% and 0.02% dye, 10 minutes exposure, compared to BSS plus control
Protocol: ARPE-19 cells, a human retinal pigment epithelial cell line (42), were purchased from ATCC (Manassas, Va., USA) and grown in a 1:1 mixture of Dulbecco's modified Eagles medium and Ham's F12 medium (DMEM/Ham's F12, Biochrom), supplemented with 10% FCS (Biochrom).
For exposure of dyes RPE and ARPE-19 cells were kept for 24 hours under serum free conditions. After washing cells three times with PBS, cells were incubated for 10 minutes with 300 μl of BSS plus containing 0.2% or 0.02% of dye, respectively. […] The dye was then removed by carefully rinsing cells with BSS plus three times. After 24 hours incubation with serum containing media the cell proliferation assay was performed. RPE cells (p3-6) were seeded in 24-well plates and exposed to two concentrations (0.2 and 0.02%) of dyes. BSS plus alone and H2O2, (200 μL/mL) served as controls.
The tetrazolium dye-reduction assay (MTT; 3-[4,5-dimethylthiazol-2-yl]-2,5-diphenyl tetrazolium bromide;) was used to determine cell survival rate. […] The medium was removed, cells were washed with PBS, and 1000 μL/well MTT solution (1.5 mL MTT stock, 2 mg/mL in PBS, plus 28.5 mL DMEM) was added. RPE cells were incubated at 37° C. for 1 hour. The formazan crystals that formed were dissolved by the addition of dimethyl sulfoxide (DMSO; 1000 μL/well). Absorption was measured by a scanning multiwell spectrophotometer at 550 nm (Molecular Probes, Garching, Germany). […] Experiments were performed in triplicate and repeated three times. RPE and ARPE-19 cells of the same passage incubated with BSS without addition of dyes served as control. Statistical comparison between dye concentrations was performed with SPSS (Mann-Whitney-U-Test).
The MTT test as performed in this study is a well established test for the assessment of cell viability, but relies on calorimetric measurement of a blue (550 nm) formazan reaction product. This color overlaps with the absorption spectra of some of the dyes tested. […] Cell monolayers were treated with dyes as per the experiments described above but absorbance readings were performed without prior application of MTT. […]

lens capsule [7] = assay: Staining of lens capsule removed during intraocular surgery; details: concentrations of 0.5% or less; dye removed after one minute
Protocol: (§2) The following four dyes were examined as examples for the inventive dyes in the present study: Light green yellowish SF (LG SF), E68, Bromophenol blue (BPB) and Chicago blue (CB). ICG (Pulsion, Munich, Germany) was used as a reference. All dyes were dissolved and diluted with balanced salt solution (BSS plus; Alcon Laboratories Inc., Fort Worth, Tex.) and concentrations of 1.0, 0.5, 0.2 and 0.05% were obtained. Dry ICG powder was first dissolved with sterile water provided by the manufacturer resulting in a 0.5% solution and then further diluted using BSS plus to a concentration of 0.05%. The dyes were then used to stain lens capsule and epiretinal membranes removed during intraocular surgery. Immediately after removal, the material was placed on a glass slide and covered with a few drops of the dye. After one minute, the dye was carefully removed by irrigation using BSS plus. Lens capsule and epiretinal tissue was then evaluated macroscopically and using light microscopy. The staining effect was subjectively graded as “excellent, good, fair or absent” by one unmasked person and photographs were taken.

[8] = system: epiretinal membranes (ERM); assay: Staining of epiretinal membranes removed during intraocular surgery; details: concentration of 1%; dye removed after one minute
Protocol: as §2

With “Copperphtalocyanine-3,4′,4″,4′″-tetrasulphonic acid tetrasodium salt [E68]” the “staining effect of the vitreous” value (vitreous; dye concentration 0.2%) was “weak”, the “staining effect of the vitreous” value (vitreous; dye concentration 2.0%) was “strong” and the “cell viability, nuclei of nonviable cells labeled with propidium iodide” value (shortened to “cell viability, nuclei”) (primary RPE cells [1]) was “did not affect cell survival”. For the same molecule, the “cell viability, nuclei” value (ARPE-19 cells [2]) was “did not affect cell survival” and the “staining of the lens capsule in porcine eyes” value (“staining of the lens capsule” below) (lens capsule [3]) was “stained well”.
With Chicago blue the “position of the long wavelength maximum, influence of dye concentration” value [4] was “not influenced by the dye concentration”, the “staining effect of the vitreous” value (vitreous; dye concentration 0.2%) was “weak” and the “staining effect of the vitreous” value (vitreous; dye concentration 2.0%) was “strong”. For the same molecule, the “cell survival of primary RPE cells (MTT)” value (primary RPE cells [5]) was “no influence on cell survival”, the “cell viability, nuclei” value (primary RPE cells [1]) was “significantly affect cell viability” and the “cell survival of ARPE-19 cells (MTT)” value (ARPE-19 cells [6]) was “no significant impact on cell survival”. For the same molecule, the “cell viability, nuclei” value (ARPE-19 cells [2]) was “significantly affect cell viability” and the “staining of the lens capsule” value (lens capsule [3]) was “stained well”.
In the case of CCN(Cc1cccc(S(=O)(=O)O)c1)c1ccc(C(=C2C=CC(=[N+](CC)Cc3cccc(S(=O)(=O)O)c3)C=C2)c2ccc(S(=O)(=O)O)cc2)cc1.[Na+].[Na+] [Light green SF], the “position of the long wavelength maximum, influence of dye concentration” value [4] is reported as “not influenced by the dye concentration”, the “staining effect of the vitreous” value (vitreous; dye concentration 0.2%) is reported as “strong” and the “staining effect of the vitreous” value (vitreous; dye concentration 2.0%) is reported as “strong”. The “cell survival of primary RPE cells (MTT)” value (primary RPE cells [5]) was “no influence on cell survival”, the “cell viability, nuclei” value (primary RPE cells [1]) was “significantly affect cell viability” and the “toxicity of 0.02% in comparison to the 0.2% dye solution” value (primary RPE cells [1]) was “far less toxic”. The “cell survival of ARPE-19 cells (MTT)” value (ARPE-19 cells [6]) was “no significant impact on cell survival”, the “cell viability, nuclei” value (ARPE-19 cells [2]) was “significantly affect cell viability” and the “toxicity of 0.02% in comparison to the 0.2% dye solution” value (ARPE-19 cells [2]) was “far less toxic”. For the same molecule, the “staining effect in removed lens capsule material” value (lens capsule [7]) was “did not stain lens capsule sufficiently”, the “staining of the lens capsule” value (lens capsule [3]) was “weak staining effects” and the “staining of ERM” value [8] was “weak staining”.
